Data: patent US20130196406A1, “NOVEL PROTEIN-POLYMER NANOCAPSULES” (University of Connecticut, priority 2012, published 2013)

How the values were obtained:
[1] = target: T1, Hb-PAA-1k-6 nanocapsule (bovine met-hemoglobin conjugated to polyacrylic acid, synthesized at pH 6) (Bos taurus, UniProt P01966+P02070); test: Peroxidase-like activity, Michaelis-Menten kinetics (guaiacol oxidation by H2O2, 470 nm), Hb-PAA-1k-6; assay type: biochemical; details: 1 μM Hb, 2.5 mM guaiacol, 1 mM H2O2
T1 construct: peroxidase-like activity with guaiacol/H2O2
Protocol: (§1) FIG. 5 provides Lineweaver-Burk plots for the peroxidase-like activity of Hb-PAA conjugates. A) Peroxidase-like activity for the 1 μM of Hb-PAA synthesized at pH 6.0. B) Peroxidase-like activity for 1 μM Hb-PAA synthesized at pH 7.0. All experiments were done in the presence of 1 μM Hb, 2.5 mM guaiacol and 1 mM H2O2.
(§2) Polyacrylic acid (PAA) (8000 Da) was purchased from sigma chemical Co (St. Louis, Mo.). The PAA stock solution was made by mixing 1.32 gm of 45% (w/w) PAA in 3 ml of 20 mM Na2HPO4 buffer, pH 7.2, and was further used for synthesis. Met-hemoglobin (Hb, bovine) was purchased from Sigma. Protein solutions were prepared in the respective buffers used for synthesis and the concentrations determined from the Soret absorbance of Hb using extinction co-efficient 303,956 M^−1 cm^−1 at 407 nm. […]
(§3) Hb activity was monitored by the addition of guaiacol (substrate) and hydrogen peroxide (oxidant), and formation of the colored product has been monitored by its absorption at 470 nm as a function of time (FIG. 4). […]
(§4) Hb activity was followed by literature method, with minor modifications. Product absorbance at 470 nm was monitored as a function time of after the addition of H2O2 (1 mM) to Hb (5 μM) and o-methoxyphenol (2.5 mM). Initial rates and Michaelis-Menten parameters were calculated from the kinetic data by following standard protocols. […]

[2] = target: T2, Hb-PAA-1k-7 nanocapsule (bovine met-hemoglobin conjugated to polyacrylic acid, synthesized at pH 7) (Bos taurus, UniProt P01966+P02070); test: Peroxidase-like activity, Michaelis-Menten kinetics (guaiacol oxidation by H2O2, 470 nm), Hb-PAA-1k-7; assay type: biochemical; details: 1 μM Hb, 2.5 mM guaiacol, 1 mM H2O2
T2 construct: peroxidase-like activity with guaiacol/H2O2
Protocol: as §1, §2, §3, §4

T2 sequence (P01966 whole entry): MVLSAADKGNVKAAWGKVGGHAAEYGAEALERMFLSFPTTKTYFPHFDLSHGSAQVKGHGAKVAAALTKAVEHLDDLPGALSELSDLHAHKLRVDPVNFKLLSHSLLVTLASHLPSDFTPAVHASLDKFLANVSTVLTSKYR
T2 sequence (P02070 whole entry): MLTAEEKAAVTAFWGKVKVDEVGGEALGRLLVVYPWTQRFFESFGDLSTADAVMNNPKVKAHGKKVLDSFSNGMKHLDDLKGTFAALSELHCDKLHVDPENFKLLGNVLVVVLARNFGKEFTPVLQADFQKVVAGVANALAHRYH
T1 sequence (P01966 whole entry): as the sequence (P01966 whole entry) above
T1 sequence (P02070 whole entry): as the sequence (P02070 whole entry) above

COc1ccccc1O [guaiacol, o-methoxyphenol]
Vmax [1]: 0.0028 mM/s
Vmax [2]: 0.0025 mM/s
